Data as given in patent US20180000085A1, “USE OF PICOLINAMIDE COMPOUNDS WITH FUNGICIDAL ACTIVITY” (DOW AGROSCIENCES LLC, priority 2014, published 2018).

Assays:
[1] = test system: Zymoseptoria tritici; experiment: Leaf blotch of wheat (SEPTTR) disease control on wheat seedlings; assay type: in vivo; settings: low volume application, 125.1 g/H; for SEPTTR 1DP disease control rating, LV activity at 125.1 g/H: 1 day protectant; for SEPTTR 3DC disease control rating, LV activity at 125.1 g/H: 3 day curative
[2] = test system: Puccinia triticina; experiment: Wheat brown rust (PUCCRT) disease control on wheat seedlings; assay type: in vivo; parameters: key to PUCCRT 3DC, HV activity at 100 ppm (% control rating) / PUCCRT disease control, 3DC / PUCCRT 1DP disease control rating, HV activity / PUCCRT 3DC disease control rating, HV activity / PUCCRT 3DC, LV activity at 125.1 g/H (% Control rating) / PUCCRT 1DP, LV activity at 125.1 g/H (% Control rating) / PUCCRT 3DC disease control rating, LV activity at 125.1 g/H / PUCCRT 1DP disease control rating, LV activity at 125.1 g/H / PUCCRT 3DC disease control rating, HV activity at 100 ppm / PUCCRT 1DP disease control rating, HV activity at 100 ppm / HV activity at 100 ppm PUCCRT 3DC (disease control rating) / LV activity at 125.1 g/H PUCCRT 1DP (disease control rating) / LV activity at 125.1 g/H PUCCRT 3DC (disease control rating): A: > 80; B: ≤ 80; C: Not Tested; D: No Activity Observed in the Reported Assay; settings: low volume application, 125.1 g/H; for PUCCRT 1DP disease control rating, LV activity at 125.1 g/H: 1 day protectant; for PUCCRT 3DC disease control rating, LV activity at 125.1 g/H: 3 day curative

| SMILES | SEPTTR 1DP disease control rating, LV activity at 125.1 g/H [1] | SEPTTR 3DC disease control rating, LV activity at 125.1 g/H [1] | PUCCRT 1DP disease control rating, LV activity at 125.1 g/H [2] | PUCCRT 3DC disease control rating, LV activity at 125.1 g/H [2] |
| --- | --- | --- | --- | --- |
| COc1ccnc(C(=O)NC(Cc2ccccc2)C(=O)OC(C)C(Oc2ccccc2)C(C)C)c1OCOC(C)=O (stereo not drawn) [Cmpd 865] | B (≤ 80) | B (≤ 80) | A (> 80) | A (> 80) |
| COc1ccnc(C(=O)NC(C)C(=O)OC(C)C(Oc2ccc(Cl)cc2Cl)c2ccccc2)c1OC(C)=O (stereo not drawn) [Cmpd 867] | A (> 80) | A (> 80) | A (> 80) | B (≤ 80) |
| COc1ccnc(C(=O)NC(C)C(=O)OC(C)C(Oc2ccc(Cl)cc2Cl)c2ccccc2)c1OC(=O)C(C)C (stereo not drawn) [Cmpd 868] | B (≤ 80) | B (≤ 80) | B (≤ 80) | B (≤ 80) |
| COc1ccnc(C(=O)NC(C)C(=O)OC(C)C(Oc2ccc(Cl)cc2Cl)c2ccccc2)c1OCOC(C)=O (stereo not drawn) [Cmpd 869] | A (> 80) | A (> 80) | A (> 80) | B (≤ 80) |
| COc1ccnc(C(=O)NC(C)C(=O)OC(C)C(Oc2ccccc2)c2ccccc2)c1OC(C)=O (stereo not drawn) [Cmpd 870] | A (> 80) | A (> 80) | A (> 80) | B (≤ 80) |
| COc1ccnc(C(=O)NC(C)C(=O)OC(C)C(Oc2ccccc2)c2ccccc2)c1OC(=O)C(C)C (stereo not drawn) [Cmpd 871] | A (> 80) | B (≤ 80) | D | D |
| COc1ccnc(C(=O)NC(C)C(=O)OC(C)C(Oc2ccccc2)c2ccccc2)c1OCOC(C)=O (stereo not drawn) [Cmpd 872] | A (> 80) | A (> 80) | A (> 80) | A (> 80) |
| COc1ccnc(C(=O)N[C@@H](C)C(=O)O[C@@H](C)[C@H](Oc2cccc(F)c2)c2cccc(-c3ccccc3)c2)c1OCOC(C)=O [Cmpd 874] | A (> 80) | B (≤ 80) | A (> 80) | B (≤ 80) |
| COc1ccnc(C(=O)N[C@@H](C)C(=O)O[C@@H](C)[C@H](OCC2CC2)c2cccc(-c3ccccc3)c2)c1OC(C)=O [Cmpd 875] | A (> 80) | A (> 80) | A (> 80) | A (> 80) |
| CC[C@H](OC(=O)[C@H](C)NC(=O)c1nccc(OC)c1OCOC(C)=O)[C@H](Oc1ccccc1)C(C)C [Cmpd 877] | B (≤ 80) | B (≤ 80) | A (> 80) | A (> 80) |
| COc1ccnc(C(=O)N[C@@H](C)C(=O)O[C@@H](C)[C@@H](OCC(C)C)c2ccccc2)c1OC(C)=O [Cmpd 878] | B (≤ 80) | B (≤ 80) | A (> 80) | A (> 80) |
| COc1ccnc(C(=O)N[C@@H](C)C(=O)O[C@@H](C)[C@@H](OCC(C)C)c2ccccc2)c1OCOC(C)=O [Cmpd 880] | B (≤ 80) | B (≤ 80) | A (> 80) | A (> 80) |
